Values of other authors as cited in patent publication US20250179129A1, “ZINC FINGER PEPTIDES, PEPTIDE ARRAYS, AND METHODS OF USE THEREOF” (The Regents of the University of California, priority 2022, published 2025).

System: single-strand RNA containing a GGU motif

## SDGDWICPDKKCGNVNFARRTSCNRCGREKTT (listed as Homo sapiens) [zinc finger in ZRANB2]
  affinity for single-strand RNA containing a GGU motif: micromolar
